In article PMC9611887, “Chitosan as a Functional Carrier for the Local Delivery Anti-Inflammatory Systems Containing Scutellariae baicalensis radix Extract” (Pharmaceutics, 2022):

Target: T1, hyaluronidase
T1 construct: gene SPAM1
Assay: turbidimetric assay, CTAB precipitation of undigested hyaluronic acid, absorbance […] nm
Format: biochemical
Conditions: hyaluronic acid 0.3 mg/mL, acetate buffer pH 4.5, bovine albumin and NaCl present, 37 °C, 10 min preincubation, 45 min reaction

Ability to Inhibit the Enzyme Hyaluronidase IC50: 1210 ± 60 µg/mL
Structure (SMILES): O=C(O)[C@H]1O[C@@H](Oc2cc3oc(-c4ccccc4)cc(=O)c3c(O)c2O)[C@H](O)[C@@H](O)[C@@H]1O [Baicalin]
